Source: patent US8821754B2, “Additive for preserving the fluidity of fluids containing gas hydrates” (Akzo Nobel N.V., priority 2006, dated 2014)
Marks after values point to notes of the source that are not given here.

Assays:
[1] = multicell shut-in and restart test of anti-agglomerants; set-up: key: 0: The stirrer did not start at all until the temperature had been increased so much that the gas hydrate had melted; 1: The stirrer started but stopped again after a short period; 2: The stirrer started and kept on running continuously; conditions: restart after at least twelve hours at 4° C.; for Tests multicell shut-in, Fresh water (70 bar) 2.5% / Tests multicell shut-in, Seawater (70 bar) 2.5%: 2.5% anti-agglomerant; for Tests multicell shut-in, Fresh water (70 bar) 2.0%: 2.0% anti-agglomerant
Excerpt: (§1) The technique used for evaluating the anti-agglomerants is described in detail in “New Technique for Evaluating Antiagglomerate Gas-Hydrate Inhibitors in Oilfield Applications”, SPE 93075, 2005 SPE International Symposium on Oilfield Chemistry, Houston, Tex., Feb. 2-4.
(§2) The complete multicell system consists of a high-pressure vessel containing the multicell test unit, a cooling unit, a stirrer drive, a sensor interface unit, and a computer system. The high-pressure vessel is connected to two gas cylinders containing pressurized hydrocarbon gas (87.9% methane, 7.7% ethane, 3.1% propane, and 1.3% isobutane) and nitrogen. Thus, in an experimental run each test cell will be subjected to the same gas mixture, temperature, and pressure. Each cell has a magnetic bar stirrer and the rotation of the stirrer is monitored by the sensor and recorded. When gas hydrate crystals are formed in a cell, there will be a change in viscosity or flow behaviour and there will be a change in the lag of the stirrer bar. Each time the magnetic bar passes a certain point, an optical pulse is recorded. The lag is measured as the difference between the position of the lower drive magnets and the stirrer in the cell. When the viscosity gets too high, as is the case when larger aggregates of gas hydrates are formed, the magnetic stirrer will either stop completely, in which case the signal will be zero, or start “skipping”, which will create an unstable/random signal, and this will be shown in the recorded graph.
(§3) Each cell is also equipped with a temperature sensor.
The cells are loaded in the same way as above, but hydrocarbon gas is admitted until the constant stated pressure is reached.
In this experiment the test cells were stirred at 120 rpm for one hour at 20° C. and the stated pressure. The stirring was then stopped and the autoclave cooled to 4° C. in about 1.5 hours. The cells were then kept at 4° C. for a minimum of twelve hours before the driving magnets were restarted at 120 rpm. They were then kept running for about two hours at 4° C. before the cells were reheated to 20° C. in about 1.5 hours.
This is marked as 0 in the tables. • The stirrer started but stopped again after a short period. This is marked as 1 in the tables. • The stirrer started and kept on running continuously. This is marked as 2 in the tables.

[2] = multicell screening of anti-agglomerants (stirred cells cooled to 4° C., 100 bars); set-up: key to Tests multicell screening, Seawater 1.0% / Tests multicell screening, Seawater 1.5% / Tests multicell screening, Fresh water 1.5% / Tests multicell screening, Fresh water 2.5%: 0: the compound does not work as an anti-agglomerant; 1: the compound initially works as an anti-agglomerant, but not throughout the whole test; 2: the compound works as an anti-agglomerant throughout the whole test; conditions: for Tests multicell screening, Seawater 1.5% / Tests multicell screening, Fresh water 1.5%: 1.5% anti-agglomerant; for Tests multicell screening, Seawater 1.5% / Tests multicell screening, Seawater 1.0% / Tests multicell screening, Fresh water 1.5% / Tests multicell screening, Fresh water 2.5%: 100 bars, 4° C., Sleipner condensate; for effect as anti-agglomerant for gas hydrates in the screening test, in words: multicell screening test of Example 1; for Tests multicell screening, Seawater 1.0%: 1.0% anti-agglomerant; for Tests multicell screening, Fresh water 2.5%: 2.5% anti-agglomerant
Excerpt: as §1, §2, §3
The cells are loaded with 1 ml of water/inhibitor mixture and 2.5 ml of Sleipner condensate (=crude oil obtained from the Sleipner oilfield of Statoil). Nitrogen is first applied to expel most of the air, and then hydrocarbon gas is admitted until a constant pressure of 100 bars is reached.
During the whole test, the mixtures were continuously stirred at 120 rpm. The temperature was first lowered from about 20° C. to 4° C. in about 1.5 hours, then kept at 4° C. for about two hours, and finally reheated again to 20° C. in about 1.5 hours. When the stirrer works all the time, the compound is considered to work well as an anti-agglomerant, whereas if the stirrer bar stops, the compound is considered not to work as an anti-agglomerant during the prevailing conditions. The tests were performed both in seawater and in fresh water and at different concentrations of the anti-agglomerants.

[3] = seawater, 1.5% anti-agglomerant

Compound | Tests multicell shut-in, Seawater (70 bar) 2.5% ([1]; seawater) | Tests multicell screening, Seawater 1.5% [2] | Tests multicell screening, Seawater 1.0% [2] | other results
CCCCCCCC/C=C\CCCCCCCCN(CCCNC(C)=O)C(C)=O [Compound 10, N-oleyl-trimethylene diamine diamidated with acetic anhydride] | 2 | 2 | – | Tests multicell shut-in, Fresh water (70 bar) 2.5% [1]: 2; Tests multicell shut-in, Seawater (70 bar) 1.5% [1, 3]: 0
CCCCCCCCN(CCCNC(C)=O)C(C)=O [Compound 11, N-(n-octyl)-trimethylene diamine diamidated with acetic anhydride] | – | 2 | – | –
CCCCC(CC)CN(CCCNC(C)=O)C(C)=O (centres unmarked) [Compound 14, N-(2-ethylhexyl)-trimethylene diamine, diamidated with acetic anhydride] | 0 | – | – | Tests multicell shut-in, Fresh water (70 bar) 2.5% [1]: 2; Tests multicell shut-in, Seawater (70 bar) 1.5% [1, 3]: 0
(Coco alkyl)amine + 2EO + 2PO [Compound 3] | 1 | 2 | 2 | Tests multicell shut-in, Fresh water (70 bar) 2.0% [1]: 2; Tests multicell shut-in, Seawater (70 bar) 1.5% [1, 3]: 0; effect as anti-agglomerant for gas hydrates in the screening test, in words [2]: works excellently as an anti-agglomerant
(Coco alkyl)amine + 2EO [B, reference compound] | – | 0 | 0 | effect as anti-agglomerant for gas hydrates in the screening test, in words [2]: not effective
(Coco alkyl)amine + 4 EO [reference compound] | – | 0 | 0 | effect as anti-agglomerant for gas hydrates in the screening test, in words [2]: not effective
Erucyl amine + 2EO + 2PO [Compound 2] | – | 2 | – | Tests multicell screening, Fresh water 1.5% [2]: 2
Monoamide between oleic acid and aminoethyl ethanolamine + 1EO, diesterified with acetic anhydride [Compound 7] | – | – | 2 | –
Monoamide between oleic acid and aminoethyl ethanolamine, amidated with acetic anhydride [Compound 8] | – | 2 | 2 | Tests multicell screening, Fresh water 1.5% [2]: 2
N,N-bis(3-aminopropyl)(tallow alkyl)amine, diamidated with acetic anhydride [Compound 9] | – | 2 | 0 | –
N-(2-ethylhexyl)-trimethylene diamine + 3PO [Compound 15] | 2 | – | – | Tests multicell shut-in, Fresh water (70 bar) 2.5% [1]: 1
N-(coco alkyl)-trimethylene diamine diamidated with acetic anhydride [Compound 12] | – | 2 | – | –
N-(n-octyl)-trimethylene diamine + 3PO [Compound 4] | – | 2 | – | –
N-(tallow alkyl)-N-methyl aminopropylamine monoamidated with acetic anhydride [Compound 13] | – | 2 | – | –
N-oleyl-trimethylene diamine + 3EO, triesterified with acetic anhydride [Compound 6] | 1 | 2 | – | Tests multicell shut-in, Fresh water (70 bar) 2.5% [1]: 2; Tests multicell shut-in, Seawater (70 bar) 1.5% [1, 3]: 0; Tests multicell screening, Fresh water 2.5% [2]: 2
Oleyl amine + 2EO + 2PO [Compound 1] | 1 | 2 | – | Tests multicell shut-in, Fresh water (70 bar) 2.0% [1]: 1; Tests multicell shut-in, Fresh water (70 bar) 2.5% [1]: 1; Tests multicell shut-in, Seawater 1.5%, measured at 100 bar ([1]; seawater, 100 bar, 1.5% anti-agglomerant): 2**
Oleyl amine + 2EO + 2PO, quaternized with CH3Cl [reference compound] | – | 2 | – | Tests multicell screening, Fresh water 1.5% [2]: 0
Oleyl amine + 2EO [D, reference compound] | – | – | 0 | –
Oleyl amine + 2EO, diester with acetic acid [Compound 5] | – | 2 | 0 | Tests multicell screening, Fresh water 1.5% [2]: 0; Tests multicell screening, Fresh water 2.5% [2]: 0
